Experimental data from the supplement of paper PMC10307832.

What was measured:
Assay in all cases: relative viability (nuclei count vs DMSO), 5 days (fraction); higher = more cells survive
XMD13-2 + Lapatinib = compound: C1CC1C(=O)NC2=NNC3=C2C=CC(=C3)C4=CC(=CC=C4)C(=O)NC5CC5 [XMD13-2] + CS(=O)(=O)CCNCc1ccc(-c2ccc3ncnc(Nc4ccc(OCc5cccc(F)c5)c(Cl)c4)c3c2)o1 [Lapatinib] (partner 2 µM)
How it was run: (§1)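 Relative viability equals treated-well nuclei counts divided by vehicle-well nuclei counts. Counts came from 4× images of lung cancer cell lines grown in 1536-well plates for 5 days after pin-tool dosing on the day after seeding. Dosing used one drug alone or a fixed anchor-drug dose plus five library-drug doses (not always all listed) in √10 steps, and values are medians of duplicate plates.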

ALW-II-49-7 + Alpelisib = compound: Cc1ccc(C(=O)Nc2cccc(C(F)(F)F)c2)cc1Nc1cncc(C(N)=O)c1 [ALW-II-49-7] + Cc1nc(NC(=O)N2CCC[C@H]2C(N)=O)sc1-c1ccnc(C(C)(C)C(F)(F)F)c1 [Alpelisib] (partner 2 µM)
How it was run: as §1

Dasatinib + Pictilisib = compound: Cc1nc(Nc2ncc(C(=O)Nc3c(C)cccc3Cl)s2)cc(N2CCN(CCO)CC2)n1 [Dasatinib] + CS(=O)(=O)N1CCN(Cc2cc3nc(-c4cccc5[nH]ncc45)nc(N4CCOCC4)c3s2)CC1 [Pictilisib] (partner 1 µM)
How it was run: as §1

Dasatinib + Linsitinib = compound: Cc1nc(Nc2ncc(C(=O)Nc3c(C)cccc3Cl)s2)cc(N2CCN(CCO)CC2)n1 [Dasatinib] + C[C@]1(O)C[C@@H](c2nc(-c3ccc4ccc(-c5ccccc5)nc4c3)c3c(N)nccn32)C1 [Linsitinib] (partner 1 µM)
How it was run: as §1

Row | Cell Line | relative viability (XMD13-2 + Lapatinib; first compound 0.05 µM) | relative viability (XMD13-2 + Lapatinib; first compound 0.1581 µM) | relative viability (XMD13-2 + Lapatinib; first compound 0.5 µM) | relative viability (XMD13-2 + Lapatinib; first compound 1.581 µM) | relative viability (XMD13-2 + Lapatinib; first compound 5 µM) | relative viability (ALW-II-49-7 + Alpelisib; first compound 0.08 µM) | relative viability (ALW-II-49-7 + Alpelisib; first compound 0.253 µM) | relative viability (ALW-II-49-7 + Alpelisib; first compound 0.8 µM) | relative viability (ALW-II-49-7 + Alpelisib; first compound 2.53 µM) | relative viability (ALW-II-49-7 + Alpelisib; first compound 8 µM) | relative viability (Dasatinib + Pictilisib; first compound 0.005 µM) | relative viability (Dasatinib + Pictilisib; first compound 0.01581 µM) | relative viability (Dasatinib + Pictilisib; first compound 0.05 µM) | relative viability (Dasatinib + Pictilisib; first compound 0.1581 µM) | relative viability (Dasatinib + Pictilisib; first compound 0.5 µM) | relative viability (Dasatinib + Linsitinib; first compound 0.005 µM) | relative viability (Dasatinib + Linsitinib; first compound 0.01581 µM) | relative viability (Dasatinib + Linsitinib; first compound 0.05 µM) | relative viability (Dasatinib + Linsitinib; first compound 0.1581 µM) | relative viability (Dasatinib + Linsitinib; first compound 0.5 µM)
1 | 201T | 1.06 | 1.13 | 1.02 | 1.07 | 1.08 | 1 | 1.02 | 1.02 | 0.992 | 1.02 | 0.664 | 0.517 | 0.627 | 0.521 | 0.383 | 1.03 | 0.953 | 0.812 | 0.679 | 0.371
2 | A549 | 1.2 | 0.974 | 0.938 | 0.811 | 0.891 | 0.82 | 0.756 | 0.728 | 0.802 | 0.712 | 0.388 | 0.257 | 0.3 | 0.134 | 0.0986 | 0.518 | 0.348 | 0.34 | 0.211 | 0.0589
3 | A-427 | 1.1 | 1.01 | 1.1 | 1.01 | 1.05 | 1.25 | 1.06 | 1.13 | 1.21 | 1.12 | 0.705 | 0.674 | 0.663 | 0.511 | 0.461 | 1.1 | 1.14 | 0.995 | 0.574 | 0.535
4 | ABC-1 | 1.42 | 1.29 | 1.12 | 1.2 | 1.23 | 0.945 | 0.937 | 1.06 | 0.967 | 0.973 | 0.937 | 0.625 | 0.659 | 0.644 | 0.506 | 0.743 | 0.704 | 0.592 | 0.452 | 0.49
5 | BEN | 0.954 | 0.829 | 0.802 | 0.597 | 0.621 | 0.993 | 0.93 | 0.936 |  | 1.17 | 0.446 | 0.37 | 0.323 | 0.297 | 0.294 | 0.776 | 0.476 | 0.531 | 0.38 | 0.322
6 | CAL-12T | 0.627 |  | 0.795 | 0.537 | 0.46 | 1.26 | 1.14 | 1.2 | 1.21 | 1.26 | 0.303 | 0.586 | 0.337 | 0.223 | 0.128 | 0.848 | 0.853 | 0.853 | 0.46 | 0.286
7 | COR-L23 | 1.26 | 1.09 | 0.929 | 1.08 | 0.91 | 0.756 | 0.536 | 0.741 | 0.898 | 0.667 | 0.714 | 0.608 | 0.744 | 0.34 | 0.207 | 0.867 | 0.665 | 0.613 | 0.329 | 0.242
8 | COR-L 105 | 0.395 | 0.319 | 0.426 | 0.346 | 0.27 | 1.14 | 1.03 | 0.894 | 0.93 | 0.943 | 0.359 | 0.383 | 0.316 | 0.308 | 0.245 | 0.753 | 0.522 | 0.689 | 0.366 | 0.263
9 | Calu-6 | 1.18 | 0.93 | 1.11 | 0.983 | 0.736 | 1.04 | 0.984 | 0.95 | 0.91 | 0.791 | 0.732 | 0.65 | 0.742 | 0.604 | 0.527 | 0.764 | 0.811 | 0.694 | 0.561 | 0.424
10 | ChaGo-K-1 |  |  |  |  |  |  |  |  |  |  | 0.435 | 0.761 | 0.774 | 0.649 | 0.626 |  |  |  |  | 
11 | EBC-1 | 0.199 | 0.22 | 0.215 | 0.185 | 0.214 | 0.791 | 0.783 | 0.731 | 0.644 | 0.522 | 0.329 | 0.231 | 0.216 | 0.181 | 0.204 | 0.787 | 0.805 | 0.782 | 0.589 | 0.467
12 | EKVX | 0.205 | 0.173 | 0.177 | 0.192 | 0.196 | 0.929 | 0.78 | 0.868 | 0.685 | 0.802 | 0.449 | 0.231 | 0.338 | 0.181 | 0.101 | 0.945 | 0.683 | 0.778 | 0.314 | 0.142
13 | EMC-BAC-2 | 1.03 | 0.866 | 0.92 | 0.879 | 0.532 | 0.843 | 0.703 | 0.758 | 0.715 | 0.645 | 0.455 | 0.344 | 0.327 | 0.243 | 0.185 | 0.685 | 0.482 | 0.525 | 0.26 | 0.201
14 | EPLC-272H | 1.09 | 0.897 | 1.01 | 0.817 | 0.911 | 0.92 | 0.879 | 1.02 | 1.08 | 1.06 | 0.312 | 0.354 | 0.276 | 0.221 | 0.147 | 1.24 | 1.28 | 1.46 | 0.92 | 0.338
15 | H3255 | 0.444 | 0.223 | 0.297 | 0.199 | 0.201 | 0.828 | 0.743 | 0.73 | 0.403 | 0.511 | 0.474 | 0.446 | 0.342 | 0.234 | 0.152 | 0.929 | 0.918 | 0.957 | 0.658 | 0.287
16 | HARA | 0.825 | 0.886 | 0.699 | 0.711 | 0.538 | 0.904 | 0.883 | 0.844 | 0.834 | 0.987 | 0.204 | 0.259 | 0.346 | 0.157 | 0.0728 | 0.971 | 0.67 | 0.516 | 0.247 | 0.189
17 | HCC-15 | 0.983 | 0.761 | 0.918 | 0.801 | 0.519 | 0.901 | 0.931 | 0.949 | 0.907 | 0.845 | 0.69 | 0.567 | 0.681 | 0.486 | 0.502 | 0.862 | 0.773 | 0.766 | 0.599 | 0.555
